# Source: ChEMBL document CHEMBL1201862, “PubChem BioAssay data set” (2004)
#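 These data come from cells grown in 96-well plates and exposed to compound for 48 hours at five concentrations. At the GI50, growth is halved.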 Calls of active or inactive are those of the source. No stated cut-off is given here; in the data, active = GI50 up to about 1.1 µM and inactive = higher.
# Columns and labels:
# Experiment in all cases: growth of human tumour cells (NCI), 48 h
# 786-0 = test system: 786-0
# A498 = test system: A498
# A549 = test system: A549
# ACHN = test system: ACHN
# CAKI-1 = test system: CAKI-1
# CCRF-CEM = test system: CCRF-CEM
# DLD-1 = test system: DLD-1
# DMS-114 = test system: DMS-114
# DMS-273 = test system: DMS-273
# EKVX = test system: EKVX
# HCC 2998 = test system: HCC 2998
# HCT-116 = test system: HCT-116
# HCT-15 = test system: HCT-15
# HL-60 = test system: HL-60
# HOP-18 = test system: HOP-18
# HOP-62 = test system: HOP-62
# HT-29 = test system: HT-29
# IGROV-1 = test system: IGROV-1
# K562 = test system: K562
# KM-20L2 = test system: KM-20L2
# KM12 = test system: KM12
# LOX IMVI = test system: LOX IMVI
# LXFL 529 = test system: LXFL 529
# M14 = test system: M14
# M19-MEL = test system: M19-MEL
# MOLT-4 = test system: MOLT-4
# Malme-3M = test system: Malme-3M
# NCI-H23 = test system: NCI-H23
# NCI-H460 = test system: NCI-H460
# NCI-H522 = test system: NCI-H522
# OVCAR-4 = test system: OVCAR-4
# OVCAR-5 = test system: OVCAR-5
# OVCAR-8 = test system: OVCAR-8
# RPMI-8226 = test system: RPMI-8226
# RXF 393 = test system: RXF 393
# RXF 631 = test system: RXF 631
# SF-268 = test system: SF-268
# SF-295 = test system: SF-295
# SF-539 = test system: SF-539
# SK-MEL-28 = test system: SK-MEL-28
# SK-MEL-2 = test system: SK-MEL-2
# SK-MEL-5 = test system: SK-MEL-5
# SK-OV-3 = test system: SK-OV-3
# SN12C = test system: SN12C
# SNB-19 = test system: SNB-19
# SNB-75 = test system: SNB-75
# SNB-78 = test system: SNB-78
# SR = test system: SR
# SW-620 = test system: SW-620
# TK-10 = test system: TK-10
# U-251 = test system: U-251
# UACC-257 = test system: UACC-257
# UACC-62 = test system: UACC-62
# UO-31 = test system: UO-31
# XF498 = test system: XF498
# BT-549 = test system: BT-549
# COLO 205 = test system: COLO 205
# DU-145 = test system: DU-145
# HOP-92 = test system: HOP-92
# Hs-578T = test system: Hs-578T
# MCF7 = test system: MCF7
# MDA-MB-231 = test system: MDA-MB-231
# MDA-MB-435 = test system: MDA-MB-435
# MDA-N = test system: MDA-N
# NCI-H226 = test system: NCI-H226
# OVCAR-3 = test system: OVCAR-3
# PC-3 = test system: PC-3
# T47D = test system: T47D
smiles,measurement,setting,value
CN(C)c1ccc(Cc2cc(C(C)(C)C)cc(C(C)(C)C)c2O)cc1,GI50,786-0,18.5 µM (inactive)
same,GI50,A498,18.2 µM (inactive)
same,GI50,A549,19.8 µM (inactive)
same,GI50,ACHN,16.6 µM (inactive)
same,GI50,CAKI-1,19.1 µM (inactive)
same,GI50,CCRF-CEM,60.1 µM (inactive)
same,GI50,DLD-1,21.8 µM (inactive)
same,GI50,DMS-114,14.6 µM (inactive)
same,GI50,DMS-273,17.4 µM (inactive)
same,GI50,EKVX,22.1 µM (inactive)
same,GI50,HCC 2998,19.6 µM (inactive)
same,GI50,HCT-116,13.2 µM (inactive)
same,GI50,HCT-15,15.8 µM
same,GI50,HL-60,21 µM (inactive)
same,GI50,HOP-18,26 µM (inactive)
same,GI50,HOP-62,20.9 µM (inactive)
same,GI50,HT-29,16.1 µM (inactive)
same,GI50,IGROV-1,18 µM (inactive)
same,GI50,K562,11.7 µM (inactive)
same,GI50,KM-20L2,18.5 µM (inactive)
same,GI50,KM12,12.2 µM (inactive)
same,GI50,LOX IMVI,10.6 µM (inactive)
same,GI50,LXFL 529,15.2 µM (inactive)
same,GI50,M14,18.1 µM (inactive)
same,GI50,M19-MEL,21.3 µM (inactive)
same,GI50,MOLT-4,14.5 µM (inactive)
same,GI50,Malme-3M,22.5 µM (inactive)
same,GI50,NCI-H23,16.1 µM (inactive)
same,GI50,NCI-H460,18.5 µM (inactive)
same,GI50,NCI-H522,18.4 µM (inactive)
same,GI50,OVCAR-4,21.3 µM (inactive)
same,GI50,OVCAR-5,6.27 µM (inactive)
same,GI50,OVCAR-8,20 µM (inactive)
same,GI50,RPMI-8226,11.5 µM (inactive)
same,GI50,RXF 393,16.4 µM (inactive)
same,GI50,RXF 631,17.3 µM (inactive)
same,GI50,SF-268,17.3 µM (inactive)
same,GI50,SF-295,18.9 µM (inactive)
same,GI50,SF-539,20.8 µM (inactive)
same,GI50,SK-MEL-28,20.3 µM (inactive)
same,GI50,SK-MEL-2,6.87 µM (inactive)
same,GI50,SK-MEL-5,15.6 µM (inactive)
same,GI50,SK-OV-3,29.3 µM (inactive)
same,GI50,SN12C,16.1 µM (inactive)
same,GI50,SNB-19,21.6 µM (inactive)
same,GI50,SNB-75,31.2 µM (inactive)
same,GI50,SNB-78,18.5 µM (inactive)
same,GI50,SR,14.6 µM (inactive)
same,GI50,SW-620,16.9 µM (inactive)
same,GI50,TK-10,13.2 µM (inactive)
same,GI50,U-251,15.2 µM (inactive)
same,GI50,UACC-257,15.6 µM (inactive)
same,GI50,UACC-62,14.7 µM (inactive)
same,GI50,UO-31,17.2 µM (inactive)
same,GI50,XF498,19.9 µM (inactive)
CC(=O)OC1CC[C@@]2(C)C(CC[C@]3(C)C2CC=C2[C@@H]4CC(C)(C)CCC4(C)CCC23C)[C@@]1(C)C(=O)O (stereo partly drawn),GI50,786-0,17.6 µM (inactive)
same,GI50,A498,19.2 µM (inactive)
same,GI50,A549,7.41 µM (inactive)
same,GI50,ACHN,12.1 µM (inactive)
same,GI50,BT-549,29.9 µM (inactive)
same,GI50,CAKI-1,18.5 µM (inactive)
same,GI50,CCRF-CEM,23.4 µM (inactive)
same,GI50,COLO 205,19.1 µM (inactive)
same,GI50,DLD-1,10.1 µM (inactive)
same,GI50,DMS-114,16.4 µM (inactive)
same,GI50,DMS-273,16.4 µM (inactive)
same,GI50,DU-145,16.6 µM (inactive)
same,GI50,EKVX,16.1 µM (inactive)
same,GI50,HCC 2998,14.5 µM (inactive)
same,GI50,HCT-116,13.2 µM (inactive)
same,GI50,HCT-15,7.93 µM
same,GI50,HL-60,31.3 µM (inactive)
same,GI50,HOP-18,21.9 µM (inactive)
same,GI50,HOP-62,19.9 µM (inactive)
same,GI50,HOP-92,20.4 µM (inactive)
same,GI50,HT-29,15.9 µM (inactive)
same,GI50,Hs-578T,20.5 µM (inactive)
same,GI50,IGROV-1,16.4 µM (inactive)
same,GI50,K562,19.2 µM (inactive)
same,GI50,KM-20L2,13.9 µM (inactive)
same,GI50,KM12,12 µM (inactive)
same,GI50,LOX IMVI,13.8 µM (inactive)
same,GI50,LXFL 529,13.3 µM (inactive)
same,GI50,M14,19.9 µM (inactive)
same,GI50,M19-MEL,22.2 µM (inactive)
same,GI50,MCF7,14.9 µM (inactive)
same,GI50,MDA-MB-231,20.9 µM (inactive)
same,GI50,MDA-MB-435,15.2 µM (inactive)
same,GI50,MDA-N,21.9 µM (inactive)
same,GI50,MOLT-4,17.6 µM (inactive)
same,GI50,Malme-3M,21.4 µM (inactive)
same,GI50,NCI-H226,22 µM (inactive)
same,GI50,NCI-H23,11.4 µM (inactive)
same,GI50,NCI-H460,10.7 µM (inactive)
same,GI50,NCI-H522,5.77 µM (inactive)
same,GI50,OVCAR-3,15.1 µM (inactive)
same,GI50,OVCAR-4,14.9 µM (inactive)
same,GI50,OVCAR-5,22.7 µM (inactive)
same,GI50,OVCAR-8,14 µM (inactive)
same,GI50,PC-3,6.61 µM (inactive)
same,GI50,RPMI-8226,10.8 µM (inactive)
same,GI50,RXF 393,16.6 µM (inactive)
same,GI50,RXF 631,12.9 µM (inactive)
same,GI50,SF-268,18.2 µM (inactive)
same,GI50,SF-295,17.9 µM (inactive)
same,GI50,SF-539,19.9 µM (inactive)
same,GI50,SK-MEL-28,21.2 µM (inactive)
same,GI50,SK-MEL-2,15.7 µM (inactive)
same,GI50,SK-MEL-5,16.9 µM (inactive)
same,GI50,SK-OV-3,17.7 µM (inactive)
same,GI50,SN12C,16.4 µM (inactive)
same,GI50,SNB-19,18.9 µM (inactive)
same,GI50,SNB-75,23 µM (inactive)
same,GI50,SNB-78,20.5 µM (inactive)
same,GI50,SR,22.8 µM (inactive)
same,GI50,SW-620,13.5 µM (inactive)
same,GI50,T47D,15.4 µM (inactive)
same,GI50,TK-10,22.3 µM (inactive)
same,GI50,U-251,10.3 µM (inactive)
same,GI50,UACC-257,19.9 µM (inactive)
same,GI50,UACC-62,15.4 µM (inactive)
same,GI50,UO-31,16 µM (inactive)
same,GI50,XF498,20.5 µM (inactive)
